Assays:
Campylobacter [1] = assay: Campylobacter carriage in chickens, cfu/g of droppings and caeca at day 42 (Example 1); format: in vivo
Procedure: (§1) A study was performed to evaluate growth promotion and reduction of Campylobacter carriage using FeQ and FeTyr in Ross 308 male broilers with 7 treatment groups. Each treatment group comprised four replicates of 10 birds per pen (40 birds/treatment group and 4 pens of 10 birds/treatment group), with 2 control groups and 5 test groups. All the test groups and one of the control groups were exposed at day 20 of the trial to dirty litter, which tested positive for Campylobacter. This method was used to provide a more natural method to Campylobacter challenge the birds. Thus there was a positive control where one treatment group was challenged with Campylobacter and one negative control group where the birds were not challenged, and five treatment groups that were all challenged with Campylobacter. The total number of birds used in the 7 treatment groups was 280. Treatment group 1 was a negative control where birds just received the commercial feed, and were not challenged with dirty litter containing Campylobacter. Treatment group 2 was the positive control where the birds received the commercial feed, and were challenged with dirty litter containing Campylobacter at day 20. Treatment group 3 received 0.22 g/L of FeQ in their drinking water and 0.22 g/Kg FeQ in their feed during the entire trial, and was challenged with dirty litter containing Campylobacter at day 20. Treatment group 5 received 0.22 g/L of FeQ in their drinking water during the entire trial, and was challenged with dirty litter containing Campylobacter at day 20. Treatment group 6 received 0.22 g/kg FeQ in their feed during the entire trial, and was challenged with dirty litter containing Campylobacter at day 20. Treatment group 7 received 0.022 g/L FeQ in their drinking water during the entire trial, and was challenged with dirty litter containing Campylobacter at day 20. Treatment group 8 received 0.02 g/L FeTyr in their drinking water during the entire trial, and was challenged with dirty litter containing Campylobacter at day 20. The FeTyr was pre-dissolved in DMSO, and diluted to provide a solution of 0.02 g/L of FeTyr in water. (An additional treatment group 4 was terminated due to solubility issues.)
(§2) Prior to challenging the chickens with dirty litter containing Campylobacter at day 20, each pen was tested for Campylobacter using cloacal swabs. All pens tested negative for Campylobacter prior to the challenge. At day 20, litter, which was naturally Campylobacter-contaminated, was tested to confirm the presence of Campylobacter, and then added (approximately 2 kg/pen) to the litter in all pens except in pens for treatment group 1 (the negative control). At day 28, the pen litter was sampled to confirm the presence or absence of Campylobacter. At day 41 and 42, caecal samples were taken from 3 birds per pen (12 birds per treatment group) and tested for Campylobacter enumeration. At day 42, digesta, fecal samples, and caecal content was taken from all birds, and pooled per pen. Two birds per pen were also taken from treatment groups 1-3, euthanized, and blood samples taken. Samples were analyzed for blood chemistry, including analysis for alkaline phosphatase, aspartate amino transferase, alanine amino transferase, gamma-glutamyl transferase, lactate dehydrogenase, total protein, albumin, globulin, amylase and glucose.

Salmonella = Salmonella cfu/g of caeca at day 42 (Example 10); format: in vivo; settings: in feed
Procedure: (§3) A study was performed to evaluate growth promotion and reduction of Campylobacter carriage using FeTyr in Ross 308 male broilers with 7 treatment groups. Each treatment group comprised eight replicates of 10 birds per pen (80 birds/treatment group), with 2 control groups and […]. All the test groups and both of the control groups were exposed at day 20 of the trial to dirty litter, which tested positive for Campylobacter. This method was used to provide a more natural method to Campylobacter challenge the birds. Thus there were two positive controls where each treatment group was challenged with Campylobacter, and five treatment groups that were all challenged with Campylobacter. The total number of birds used in the 7 treatment groups was 560.
(§4) At day 20, litter, which was naturally Campylobacter-contaminated, was tested to confirm the presence of Campylobacter, and then added (approximately 2 kg/pen) to the litter in all pens. At day 42, caecal samples were taken and tested for Campylobacter, E. coli and Salmonella enumeration.

[2] = Growth performance of broilers given FeQ or FeTyr in water/feed, dirty litter Campylobacter challenge at day 20 (Example 1); format: in vivo, Ross 308 male broilers
Procedure: as §1
The birds were fed with a commercial three-phase feeding program using starter, grower and finisher feeds with formulations shown in Table 2. All diets had coccidiostat (MAXIBAN® at 0.0625% in starter and […] and MONTEBAN® at 0.06% in finisher phase). Xylanase (RONOZYME® WX at 200 g per ton) and phytase (RONOZYME® P at 150 grams per ton) were added to all diets.
The feeding program is show in Table 3. The birds were reared in floor pens to day 42, and fed starter, grower and finisher feed at day 0 to 11, 11 to 24, and 24 to 42 days, respectively. All birds were weighed individually and feed weigh backs recorded per pen at day 0, 11, 21, 24 and 42 days.
as §2, with “Samples were analyzed for blood chemistry, including analysis for alkaline phosphatase, aspartate amino transferase, alanine amino transferase, gamma-glutamyl transferase, lactate dehydrogenase, total protein, albumin, globulin, amylase and glucose.” left out

Campylobacter [3] = assay: Campylobacter cfu/g of caeca at day 42 (Example 10); format: in vivo; settings: in feed
Procedure: as §3, §4

[4] = Dose ranging study of FeTyr (TYPLEX) in feed, zootechnical performance of broilers, dirty litter challenge at day 20 (Example 10); format: in vivo, Ross 308 male broilers; settings: all treatment groups, in feed
Procedure: as §3
Treatment group 1 was a positive control where birds just received the commercial feed, and were challenged with dirty litter containing Campylobacter at day 20. Treatment group 2 received 0.01 g/kg of TYPLEX (FeTyr) in their feed, and were challenged with dirty litter containing Campylobacter at day 20. Treatment group 3 received 0.02 g/kg of TYPLEX (FeTyr) in their feed, and was challenged with dirty litter containing Campylobacter at day 20. Treatment group 4 received 0.05 g/kg of TYPLEX (FeTyr) in their feed, and was challenged with dirty litter containing Campylobacter at day 20. Treatment group 5 received 0.1 g/kg of TYPLEX (FeTyr) in their feed, and was challenged with dirty litter containing Campylobacter at day 20. Treatment group 6 received 0.2 g/kg of TYPLEX (FeTyr) in their feed, and was challenged with dirty litter containing Campylobacter at day 20. […] The birds were fed with a commercial three-phase feeding program using starter, grower and finisher feeds as described in Example 1. The birds were reared in floor pens to day 42, and fed starter, grower and finisher feed at day 0 to 11, 11 to 24, and 24 to 42 days, respectively. All birds were weighed individually and feed weigh backs recorded per pen at day 0, 11, 21, 24 and 42 days.
as §4
In order to minimize risk of cross-contamination, standard industry biosecurity measures were used including: disinfecting boots, changing overshoes and gloves between pens/treatments, entering Campylobacter negative pens before entering Campylobacter positive pens, and leaving adjacent pens empty. Daily health, culls, and mortality were recorded. All bird weights were recorded at 0, 11, 21, 24, 33 and 42 days. Weight gains, feed intake and feed conversion ratio (FCR) were derived for each feeding period.

E. coli = E. coli cfu/g of caeca at day 42 (Example 10); format: in vivo
Procedure: as §3, §4

Compound: N[C@@H](Cc1ccc(O)cc1)C(=O)O.[Fe+3] [FeTyr, ferric tyrosine]
- Campylobacter cfu/g of caeca samples at day 42 compared with positive control (FIG. 4) (Campylobacter [1]; treatment groups 3 and 5-8): positive effect on reducing Campylobacter infection
- Campylobacter cfu/g of bird droppings at day 42 compared with positive control (FIG. 3) (Campylobacter [1]; treatment groups 3 and 6-8): positive effect on reducing Campylobacter infection
- Salmonella cfu/g of caeca at day 42 (FIG. 15) (Salmonella): positive effect on reducing Campylobacter infection
- effect on growth performance in the absence of Campylobacter challenge, first 20 days ([2]; compared with control groups 1 and 2): positive effect
- effect on MFCR at day 42 compared with positive control (FIG. 2) ([2]; treatment groups 3, 5, 6, 7 and 8, challenged with dirty litter): positive effect on MFCR
- effect on growth: average body weight at day 42 compared with positive control (FIG. 1) ([2]; treatment groups 3, 5, 6, 7 and 8, challenged with dirty litter containing Campylobacter): positive effect on growth
- Campylobacter cfu/g of caeca at day 42 (FIG. 14) (Campylobacter [3]): positive effect on reducing Campylobacter infection
- MFCR at day 42 compared to control group (FIG. 13) [4]: improved MFCR values
- average body weight at day 42 compared with control group (FIG. 12) [4]: higher average body weight
- E. coli cfu/g of caeca at day 42 (FIG. 16) (E. coli; in feed): positive effect on reducing Campylobacter infection
- levels of E. coli in poultry upon treatment (E. coli; poultry data): lower levels of E. coli

Reference: patent publication US10653658B2, “Biofilm inhibiting compositions enhancing weight gain in livestock” (Akeso Biomedical, Inc., priority 2015, dated 2020)
